For 22 compounds, IC50 results are on record in patent publication US9855268B2, “Triazolo[4,5-d]pyrimidine derivatives” (Merck Patent GmbH, priority 2013, dated 2018).

Like-named read-outs stand apart in the source and are kept apart here. Bounds are passed on as bounds.

One test concerns the target GSK3α(h) (Homo sapiens, UniProt P49840). The experiment in a line: GSK3α radiometric kinase assay (33P-ATP, phospho GS2 peptide). The test is classed as biochemical. To be noted: read-out: IC50 GSK3α (enzyme assay). How it is done:
GSK3α(h) is incubated with 8 mM MOPS pH 7,0, 0,2 mM EDTA, 20 μM
[…](p)EDEEE (phosphor GS2 peptide), 10 mM Mg-acetate and [gamma-33P-ATP](specific activity approx. 500 cpm/Pmol, concentration as required). The reaction is initiated by the addition of the MgATP. After incubation for 40 minutes at the room temperature, the Reaction is stopped by the addition of 3% phosphoric acid solution. 10 μL of reaction is then spotted onto a P30 filtermat and washed three times for 5 minutes in 50 mM phosphoric acid and once in methanol prior to drying and scintillation counting.

For test [1], the target named is T1, GCN2 (Homo sapiens, UniProt Q9P2K8). The experiment in a line: Cellular assay of GCN2 activity (phospho-eIF2alpha immunocytochemistry after tryptophanol). The test is classed as cell-based. Set-up: endogenous in cells; host or cells: U2OS. The conditions noted are these: Human U2OS cells, 2 h compound, 600 μM tryptophanol 30 min. On the procedure:
Cellular Assay for the Determination of Compound Activities
Human U2OS cells (2000 cells/well) are seeded into 384-well plates and incubated for 20 hours.
The next day, the cells are treated with the test compounds and incubated for 2 hours. Then, tryptophanol, at a final concentration of 600 μM, is added to the cells and those are incubated for 30 minutes.
The analysis of cellular GCN2 activities is done by immunocytochemistry.
Briefly, cells are fixated on the well surfaces by formaldehyde and permeabilised with Triton X-100.
The analysis and quantification of phosphorylated GCN2 is done by scanning the plates in the Acumen Explorer system (TTPLabtech). The obtained data are normalised against the untreated control wells (DMSO only) and expressed as % effect values. The determination of IC50 values is done by using the Graph Pad Prism software.
Target sequence in this assay (Q9P2K8 whole entry): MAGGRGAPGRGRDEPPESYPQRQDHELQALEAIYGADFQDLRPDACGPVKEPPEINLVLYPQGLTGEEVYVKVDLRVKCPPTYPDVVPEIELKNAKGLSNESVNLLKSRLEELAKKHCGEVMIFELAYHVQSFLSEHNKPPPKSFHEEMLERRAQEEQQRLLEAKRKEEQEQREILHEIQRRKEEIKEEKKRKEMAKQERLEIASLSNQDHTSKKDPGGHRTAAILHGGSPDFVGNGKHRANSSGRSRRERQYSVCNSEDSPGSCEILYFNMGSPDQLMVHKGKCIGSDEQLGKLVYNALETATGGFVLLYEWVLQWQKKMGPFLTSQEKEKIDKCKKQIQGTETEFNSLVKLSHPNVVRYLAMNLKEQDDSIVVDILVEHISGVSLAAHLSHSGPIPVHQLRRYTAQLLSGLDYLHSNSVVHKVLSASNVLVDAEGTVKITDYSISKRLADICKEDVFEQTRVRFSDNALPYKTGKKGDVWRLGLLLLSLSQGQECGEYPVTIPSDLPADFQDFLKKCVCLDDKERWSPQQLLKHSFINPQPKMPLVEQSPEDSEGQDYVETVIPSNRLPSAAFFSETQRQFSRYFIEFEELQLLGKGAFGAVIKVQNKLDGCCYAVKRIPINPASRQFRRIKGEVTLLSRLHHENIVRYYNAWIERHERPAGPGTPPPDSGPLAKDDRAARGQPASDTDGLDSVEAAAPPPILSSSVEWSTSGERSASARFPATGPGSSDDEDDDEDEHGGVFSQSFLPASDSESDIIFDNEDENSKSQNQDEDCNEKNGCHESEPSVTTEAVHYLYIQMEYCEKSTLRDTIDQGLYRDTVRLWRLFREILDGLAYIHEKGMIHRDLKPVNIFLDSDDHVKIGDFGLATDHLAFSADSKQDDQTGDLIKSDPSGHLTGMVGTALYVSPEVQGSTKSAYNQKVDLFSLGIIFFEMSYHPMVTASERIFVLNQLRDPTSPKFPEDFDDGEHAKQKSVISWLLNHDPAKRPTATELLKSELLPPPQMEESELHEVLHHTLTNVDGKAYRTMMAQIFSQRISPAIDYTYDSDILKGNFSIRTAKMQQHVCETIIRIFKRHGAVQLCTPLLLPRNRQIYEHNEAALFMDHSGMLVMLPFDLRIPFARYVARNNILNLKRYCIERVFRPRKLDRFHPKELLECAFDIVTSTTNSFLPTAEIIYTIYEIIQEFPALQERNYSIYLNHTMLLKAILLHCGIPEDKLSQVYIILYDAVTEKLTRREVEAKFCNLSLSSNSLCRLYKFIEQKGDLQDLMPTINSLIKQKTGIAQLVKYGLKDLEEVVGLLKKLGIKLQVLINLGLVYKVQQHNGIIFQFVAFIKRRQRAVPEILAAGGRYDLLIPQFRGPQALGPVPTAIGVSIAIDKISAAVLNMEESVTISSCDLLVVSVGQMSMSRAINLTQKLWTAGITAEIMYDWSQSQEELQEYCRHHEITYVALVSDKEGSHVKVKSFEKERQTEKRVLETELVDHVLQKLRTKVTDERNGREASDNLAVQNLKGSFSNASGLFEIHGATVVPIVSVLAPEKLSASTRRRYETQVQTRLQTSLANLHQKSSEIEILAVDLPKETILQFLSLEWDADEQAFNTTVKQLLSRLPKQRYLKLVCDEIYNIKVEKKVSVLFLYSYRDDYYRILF

In test [2] the target is T1, GCN2. The experiment in a line: GCN2 enzyme assay (TR-FRET Lanthascreen, GFP-eIF2alpha phosphorylation). The test is classed as biochemical. The conditions noted are these: 10 μM ATP, 80 nM GFP-eIF2a, 30 nM GCN2. The gist of the method:
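Kinase reaction with 10 μM ATP and 80 nM GFP-labelled eIF2alpha substrate at room temperature, stopped with EDTA. Phospho-eIF2alpha detected by TR-FRET between antibody and GFP-substrate, excitation at 340 nm.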
Target sequence in this assay (Q9P2K8 whole entry, species assumed): as the sequence (Q9P2K8 whole entry) above
(TR-FRET usually uses a lanthanide donor and a delayed reading to cut background.)

Sequence of GSK3α(h) (P49840 whole entry): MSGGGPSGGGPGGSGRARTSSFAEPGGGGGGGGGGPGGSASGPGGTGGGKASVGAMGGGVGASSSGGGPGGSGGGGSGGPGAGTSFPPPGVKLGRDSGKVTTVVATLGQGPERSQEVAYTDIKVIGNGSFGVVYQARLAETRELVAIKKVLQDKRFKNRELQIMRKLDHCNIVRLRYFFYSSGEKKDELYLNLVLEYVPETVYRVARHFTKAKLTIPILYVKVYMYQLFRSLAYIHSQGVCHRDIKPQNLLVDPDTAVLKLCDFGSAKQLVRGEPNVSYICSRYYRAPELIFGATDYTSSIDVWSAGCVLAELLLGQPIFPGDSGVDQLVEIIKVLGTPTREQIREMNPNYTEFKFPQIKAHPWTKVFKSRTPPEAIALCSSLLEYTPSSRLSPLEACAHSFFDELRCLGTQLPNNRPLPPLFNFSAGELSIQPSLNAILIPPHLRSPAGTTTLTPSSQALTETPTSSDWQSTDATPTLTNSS

Broadly, the IC50 is the concentration that gives 50% inhibition. Consider `Cc1ccc2cc(-n3nnc4cnc(N[C@@H]5CC[C@@H](O)C5)nc43)ccc2n1` (relative stereo) [A202, (trans)-3-[3-(2-methyl-quinolin-6-yl)-3H-[1,2,3]triazolo[4,5-d]pyrimidin-5-ylamino]-cyclopentanol], for which the IC50 at GSK3α(h) is less than 1000 nM; on GCN2 [1], 1000 to 5000 nM; at GCN2 [2] it was less than 1000 nM.
`N#CCCn1cc(-c2ccc(-n3nnc4cnc(N[C@@H]5CC[C@@H](O)C5)nc43)cc2)cn1` (relative stereo) [A214, 3-(4-{4-[5-(trans-3-hydroxy-cyclopentylamino)-[1,2,3]triazolo[4,5-d]pyrimidin-3-yl]-phenyl}-pyrazol-1-yl)-propionitrile]: the results for the IC50 at GSK3α(h), on GCN2 [1] and at GCN2 [2] were less than 1000 nM, 1000 to 5000 nM and less than 1000 nM, respectively.
In the case of `NC1CC[C@@H](Nc2ncc3nnn(-c4ccc(-c5cnn(CCO)c5)cc4)c3n2)C1` (stereo in doubt) [A257, 2-(4-{4-[5-((1R,3S)-3-amino-cyclopentylamino)-[1,2,3]triazolo[4,5-d]pyrimidin-3-yl]-phenyl}-pyrazol-1-yl)-ethanol], the IC50 was less than 1000 nM at GSK3α(h), 5000 to 10000 nM on GCN2 [1] and less than 1000 nM at GCN2 [2].
Turning to `COc1ccc(-n2nnc3cnc(N[C@@H]4CC[C@H](CO)C4)nc32)cc1` [A112, {(1S,3R)-3-[3-(4-methoxy-phenyl)-3H-[1,2,3]triazolo[4,5-d]pyrimidin-5-ylamino]-cyclopentyl}-methanol], the concentration for half-maximal inhibition (IC50) was less than 1000 nM on GSK3α(h), 1000 to 5000 nM on GCN2 [1] and less than 1000 nM at GCN2 [2].
Turning to `COc1ccc(-n2nnc3cnc(N[C@@H]4CC[C@@H](CO)C4)nc32)cc1` [A114, {(1R,3R)-3-[3-(4-methoxy-phenyl)-3H-[1,2,3]triazolo[4,5-d]pyrimidin-5-ylamino]-cyclopentyl}-methanol], the figures for the IC50 at GSK3α(h), against GCN2 [1] and at GCN2 [2] were less than 1000 nM, 1000 to 5000 nM and less than 1000 nM, respectively.
Turning to `COCCn1cc(-c2ccc(-n3nnc4cnc(N[C@@H]5CC[C@@H](N)C5)nc43)cc2)cn1` [A123, (1R,3R)—N-(3-{4-[1-(2-methoxy-ethyl)-1H-pyrazol-4-yl]-phenyl}-3H-[1,2,3]triazolo[4,5-d]pyrimidin-5-yl)-cyclopentane-1,3-diamine], the IC50 on GSK3α(h), on GCN2 [1] and at GCN2 [2] was less than 1000 nM throughout.
In the case of `N[C@H]1CC[C@H](Nc2ncc3nnn(-c4ccc(OC5CCOCC5)cc4)c3n2)CC1` [A127, N-{3-[4-(tetrahydro-pyran-4-yloxy)-phenyl]-3H-[1,2,3]triazolo[4,5-d]pyrimidin-5-yl}-trans-cyclohexane-1,4-diamine], the IC50 is less than 1000 nM at GSK3α(h), 1000 to 5000 nM on GCN2 [1] and less than 1000 nM against GCN2 [2].
In the case of `Cn1cc(-c2ccc(-n3nnc4cnc(N[C@H]5CC[C@H](N)CC5)nc43)cc2)cn1` [A129, N-{3-[4-(1-methyl-1H-pyrazol-4-yl)-phenyl]-3H-[1,2,3]triazolo[4,5-d]pyrimidin-5-yl}-trans-cyclohexane-1,4-diamine], the values for the IC50 at GSK3α(h), on GCN2 [1] and against GCN2 [2] were less than 1000 nM, 1000 to 5000 nM and less than 1000 nM, respectively.
Turning to `CN(C)CCC(=O)N1CC[C@@H](Nc2ncc3nnn(-c4ccc(-c5cnn(C)c5)cc4)c3n2)C1` [A130, 3-dimethylamino-1-((R)-3-{3-[4-(1-methyl-1H-pyrazol-4-yl)-phenyl]-3H-[1,2,3]triazolo[4,5-d]pyrimidin-5-ylamino}-pyrrolidin-1-yl)-propan-1-one], the IC50 on GSK3α(h) was less than 1000 nM; against GCN2 [1] it was 5000 to 10000 nM; against GCN2 [2], less than 1000 nM.
As to `CN1CCN(CCC(=O)N2CC[C@@H](Nc3ncc4nnn(-c5ccc(-c6cnn(C)c6)cc5)c4n3)C2)CC1` [A131, 3-(4-methyl-piperazin-1-yl)-1-((R)-3-{3-[4-(1-methyl-1H-pyrazol-4-yl)-phenyl]-3H-[1,2,3]triazolo[4,5-d]pyrimidin-5-ylamino}-pyrrolidin-1-yl)-propan-1-one], the IC50 at GSK3α(h) is less than 1000 nM; at GCN2 [1], 5000 to 10000 nM; on GCN2 [2] it was less than 1000 nM.
In the case of `COc1ccc(-n2nnc3cnc(N[C@@H]4CC[C@@H](C(N)=O)C4)nc32)cc1` [A140, (1R,3R)-3-[3-(4-methoxy-phenyl)-3H-[1,2,3]triazolo[4,5-d]pyrimidin-5-ylamino]-cyclopentanecarboxylic acid amide], the IC50 is less than 1000 nM on GSK3α(h), 1000 to 5000 nM against GCN2 [1] and less than 1000 nM at GCN2 [2].
Turning to `Cc1nc2ccc(-n3nnc4cnc(N[C@@H]5CC[C@H](C(N)=O)C5)nc43)cc2o1` [A141, (1S,3R)-3-[3-(2-methyl-benzoxazol-6-yl)-3H-[1,2,3]triazolo[4,5-d]pyrimidin-5-ylamino]-cyclopentanecarboxylic acid amide], the IC50 on GSK3α(h) is less than 1000 nM; against GCN2 [1], 5000 to 10000 nM; against GCN2 [2], less than 1000 nM.
As for `NC(=O)[C@H]1CC[C@@H](Nc2ncc3nnn(-c4ccc5ncccc5c4)c3n2)C1` [A189, (1S,3R)-3-(3-quinolin-6-yl-3H-[1,2,3]triazolo[4,5-d]pyrimidin-5-ylamino)-cyclopentanecarboxylic acid amide], the IC50 at GSK3α(h) was less than 1000 nM; on GCN2 [1], 1000 to 5000 nM; on GCN2 [2] it was less than 1000 nM.
As to `NC(=O)[C@@H]1CC[C@@H](Nc2ncc3nnn(-c4ccc5ncccc5c4)c3n2)C1` [A190, (1R,3R)-3-(3-quinolin-6-yl-3H-[1,2,3]triazolo[4,5-d]pyrimidin-5-ylamino)-cyclopentanecarboxylic acid amide], the values for the half-inhibitory concentration (IC50) at GSK3α(h), at GCN2 [1] and at GCN2 [2] were less than 1000 nM, 5000 to 10000 nM and less than 1000 nM, respectively.
Consider `O[C@@H]1CC[C@@H](Nc2ncc3nnn(-c4ccc(-c5cnn(CCN6CCCC6)c5)cc4)c3n2)C1` [A213, (1R,3R)-3-(3-{4-[1-(2-pyrrolidin-1-yl-ethyl)-1H-pyrazol-4-yl]-phenyl}-3H-[1,2,3]triazolo[4,5-d]pyrimidin-5-ylamino)-cyclopentanol], for which the IC50 was less than 1000 nM at GSK3α(h), 1000 to 5000 nM against GCN2 [1] and less than 1000 nM on GCN2 [2].
As for `N[C@H]1CC[C@H](Nc2ncc3nnn(-c4ccc(-c5cnn(CCn6cccn6)c5)cc4)c3n2)CC1` [A215, N-(3-{4-[1-(2-pyrazol-1-yl-ethyl)-1H-pyrazol-4-yl]-phenyl}-3H-[1,2,3]triazolo[4,5-d]pyrimidin-5-yl)-cyclohexane-1,4-diamine], the IC50 at GSK3α(h) is less than 1000 nM; on GCN2 [1] it was 5000 to 10000 nM; against GCN2 [2] it was less than 1000 nM.
Consider `NC(=O)[C@H]1CC[C@@H](Nc2ncc3nnn(-c4ccc(-c5cnn(CCN6CCCC6)c5)cc4)c3n2)C1` [A216, (1S,3R)-3-(3-{4-[1-(2-pyrrolidin-1-yl-ethyl)-1H-pyrazol-4-yl]-phenyl}-3H-[1,2,3]triazolo[4,5-d]pyrimidin-5-ylamino)-cyclopentanecarboxylic acid amide], for which the half-maximal inhibitory concentration (IC50) on GSK3α(h) is less than 1000 nM; against GCN2 [1] it was 1000 to 5000 nM; against GCN2 [2], less than 1000 nM.
For `COc1ccc(-n2nnc3cnc(N[C@@H]4CC[C@@H](C(=O)N5CCN(C)CC5)C4)nc32)cc1` [A241, {(1R,3R)-3-[3-(4-methoxy-phenyl)-3H-[1,2,3]triazolo[4,5-d]pyrimidin-5-ylamino]-cyclopentyl}-(4-methyl-piperazin-1-yl)-methanone], the half-inhibitory concentration (IC50) at GSK3α(h) is less than 1000 nM; against GCN2 [1], 1000 to 5000 nM; at GCN2 [2] it was less than 1000 nM.
For the compound `CN1CCN(CCNC(=O)[C@H]2CC[C@@H](Nc3ncc4nnn(-c5ccc6ncccc6c5)c4n3)C2)CC1` [A242, (1S,3R)-3-(3-quinolin-6-yl-3H-[1,2,3]triazolo[4,5-d]pyrimidin-5-ylamino)-cyclopentanecarboxylic acid [2-(4-methyl-piperazin-1-yl)-ethyl]-amide], the half-inhibitory concentration (IC50) was less than 1000 nM on GSK3α(h), 1000 to 5000 nM against GCN2 [1] and less than 1000 nM on GCN2 [2].
On to `NC(=O)[C@@H]1CC[C@@H](Nc2ncc3nnn(-c4ccc(-c5cnn(CCO)c5)cc4)c3n2)C1` [A255, (1R,3R)-3-(3-{4-[1-(2-hydroxy-ethyl)-1H-pyrazol-4-yl]-phenyl}-3H-[1,2,3]triazolo[4,5-d]pyridimdin-5-ylamino)-cyclopentanecarboxylic acid amide], for which the results for the IC50 at GSK3α(h) (10 μM ATP or Km ATP), on GCN2 [1] and at GCN2 [2] were less than 1000 nM, 1000 to 5000 nM and less than 1000 nM, respectively.
As to `COC(=O)CCOc1ccc(-n2nnc3cnc(N[C@@H]4CC[C@@H](C(N)=O)C4)nc32)cc1` [A292, 3-{4-[5-((1R,3R)-3-carbamoyl-cyclopentylamino)-[1,2,3]triazolo[4,5-d]pyrimidin-3-yl]-phenoxy}-propionic acid methyl ester], the IC50 on GCN2 [1] was 1000 to 5000 nM; at GCN2 [2] it was less than 1000 nM.
For `Cn1cc(CNc2ncc3nnn(-c4ccc5ncccc5c4)c3n2)cn1` [B1, (1-methyl-1H-pyrazol-4-ylmethyl)-(3-quinolin-6-yl-3H-[1,2,3]triazolo[4,5-d]pyrimidin-5-yl)-amine] the same measures were 5000 to 10000 nM and less than 1000 nM.
